Results on two molecules are retold here after paper PMC11284788, “NN1213 – A Potent, Long-Acting, and Selective Analog of Human Amylin” (Journal of Medicinal Chemistry, 2024).

Series [1] is described as follows: Solubility versus pH profile.
Series [2] can be described thus: ThT assay: fibril formation propensity and peptide recovery. Format: physicochemical. The settings on record: for recovery: residual dissolved peptide after 45 h of shaking, centrifugation and 0.22 μm filtration, HPLC, relative to amount before stress. The method in brief: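 Fibrillation lag time is read visually from ThT fluorescence-time curves (444/485 nm, 20-min reads, 45 h, 37 °C, 960 rpm shaking) of 250 μM peptide with 1 μM ThT at pH 4.0 or 7.5. The most conservative of four replicates is used. Peptide recovery is post-stress soluble peptide (HPLC, 215/276 nm) as fraction of initial.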

Series [3] is described as follows: HMWP content by size-exclusion chromatography. Format: physicochemical. The settings on record: covalent dimers and polymers prior to fibril formation testing, SEC, % of total absorbance area at 215 nm. The method in brief:
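HMWP percentage is the covalent dimer/polymer peak area relative to total absorbance area, with extinction coefficients taken as equal to the main peak. Isocratic size-exclusion elution used 50% (v/v) 2-propanol containing 0.5 M NaCl and phosphate buffer; measured on analogs prior to fibril assays.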
(In gel filtration, larger molecules generally elute earlier.)

[4] abbreviates: bis-tris-propane buffer, pH 6, aqueous buffer.
[5] abbreviates: bis-tris-propane buffer, pH 6.5, aqueous buffer.
[6] abbreviates: bis-tris-propane buffer, pH 7, aqueous buffer.
[7] abbreviates: bis-tris-propane buffer, pH 7.5, aqueous buffer.
Where [8] appears, read: bis-tris-propane buffer, pH 8, aqueous buffer.
Where [9] appears, read: lactate buffer, pH 4, aqueous buffer.
The mark [10] stands for this setting: lactate buffer, pH 5, aqueous buffer.

Values after ≈ are worked out from the molar mass of the structure shown. Numbered stars: 1 amine (or outer) side, 2 acyl side, 3 side chain; on linkers, the order of the positions; unused ones are H or OH. Bridge positions count the residues as written; N and C are the ends. Side chains are listed from the residue outwards. Peptide text beside a SMILES is read from it. * marks the point of attachment. C20 diacid = O=C(O)CCCCCCCCCCCCCCCCCCC(=O)*; γGlu = O=C(O)[C@H](CCC(=O)[*:2])N[*:1] Bounds are passed on as bounds.

Take `CC[C@H](C)[C@H](NC(=O)[C@H](C)NC(=O)CNC(=O)[C@H](Cc1ccccc1)NC(=O)[C@H](CC(N)=O)NC(=O)[C@@H]1CCCN1C(=O)[C@H](CO)NC(=O)[C@H](CO)NC(=O)[C@H](Cc1c[nH]cn1)NC(=O)[C@H](CCCNC(=N)N)NC(=O)[C@H](CC(C)C)NC(=O)[C@H](Cc1ccccc1)NC(=O)[C@H](CC(N)=O)NC(=O)[C@H](C)NC(=O)[C@H](CC(C)C)NC(=O)[C@H](CCCNC(=N)N)NC(=O)[C@H](CCC(N)=O)NC(=O)[C@@H](NC(=O)[C@H](C)NC(=O)[C@@H]1CSSC[C@H](NC(=O)[C@H](CCCCN)NC(=O)CC[C@H](NC(=O)CCCCCCCCCCCCCCCCCCC(=O)O)C(=O)O)C(=O)N[C@@H](CC(N)=O)C(=O)N[C@@H]([C@@H](C)O)C(=O)N[C@@H](C)C(=O)N[C@@H]([C@@H](C)O)C(=O)N1)[C@@H](C)O)C(=O)N1CCC[C@H]1C(=O)N[C@@H](CO)C(=O)N[C@@H](CO)C(=O)N[C@H](C(=O)N[C@@H](CC(N)=O)C(=O)N[C@H](C(=O)NCC(=O)N[C@@H](CCCNC(=N)N)C(=O)N[C@@H](CC(N)=O)C(=O)N[C@H](C(=O)N[C@@H](Cc1ccc(O)cc1)C(N)=O)[C@@H](C)O)C(C)C)[C@@H](C)O` [Peptide 16]: the kinetic solubility in series [1] (setting [4]), in series [1] (setting [5]), in series [1] (setting [6]), in series [1] (setting [7]), in series [1] (setting [8]) and in series [1] (setting [9]) was at least 200 µM each time. In addition, in series [1] (setting [10]), the kinetic solubility (commonly solubility judged after dilution from a stock solution rather than from solid) was at least 200 µM. In addition, the “ThT, pH 4.0 lag-time” value in series [2] (250 μM peptide, 10 mM glycylglycine pH 4.0, 1 μM ThT, 37 °C, 960 rpm, 45 h, lowest of four replicas, average of experiments) is over 45 h. The molecule also gave a recovery in series [2] (pH 4.0) of 100%. Besides, the HMWP in series [3] (analogs 10–21 (pH 4.0 series)) came out at 2.2%.

Consider `CC(C)C[C@H](NC(=O)[C@H](CCCNC(=N)N)NC(=O)[C@H](CCC(N)=O)NC(=O)[C@@H](NC(=O)[C@H](C)NC(=O)[C@@H]1CSSC[C@H](NC(=O)[C@@H](N)CCCCNC(=O)CC[C@H](NC(=O)CC[C@H](NC(=O)CCCCCCCCCCCCCCCCCCC(=O)O)C(=O)O)C(=O)O)C(=O)N[C@@H](CC(N)=O)C(=O)N[C@@H]([C@@H](C)O)C(=O)N[C@@H](C)C(=O)N[C@@H]([C@@H](C)O)C(=O)N1)[C@@H](C)O)C(=O)N[C@@H](C)C(=O)N[C@@H](CC(=O)O)C(=O)N[C@@H](Cc1ccccc1)C(=O)N[C@@H](CC(C)C)C(=O)N[C@@H](CCCNC(=N)N)C(=O)N[C@@H](Cc1c[nH]cn1)C(=O)N[C@@H](CO)C(=O)N[C@@H](CO)C(=O)N[C@@H](CC(N)=O)C(=O)N1CCC[C@H]1C(=O)N[C@@H](Cc1ccccc1)C(=O)NCC(=O)N[C@@H](C)C(=O)N1CCC[C@H]1C(=O)N[C@@H](CC(C)C)C(=O)N[C@@H](CO)C(=O)N[C@@H](CO)C(=O)N[C@H](C(=O)N[C@@H](CC(N)=O)C(=O)N[C@H](C(=O)NCC(=O)N[C@@H](CO)C(=O)N[C@@H](CC(=O)O)C(=O)N[C@H](C(=O)N[C@@H](Cc1ccc(O)cc1)C(N)=O)[C@@H](C)O)C(C)C)[C@@H](C)O` [Peptide 7] (H-K([γGlu-γGlu-C20 diacid])CNTATCATQRLADFLRHSSNPFGAPLSSTNVGSDTY-NH2; disulfide 2-7), for which the kinetic solubility was 189 µM (≈ 853 µg/mL) in series [1] (setting [4]); at least 200 µM in series [1] (setting [5]); 195 µM (≈ 880 µg/mL) in series [1] (setting [6]); at least 200 µM in series [1] (setting [7]); at least 200 µM in series [1] (setting [8]); 96 µM (≈ 433 µg/mL) in series [1] (setting [9]). The molecule further showed a solubility (kinetic) in series [1] (setting [10]) of 141 µM (≈ 636 µg/mL). The “ThT, pH 7.5 lag-time” value in series [2] (250 μM peptide, 10 mM HEPES pH 7.5, 1 μM ThT, 37 °C, 960 rpm, 45 h, lowest of four replicas, average of experiments) is over 45 h. The molecule further had a recovery in series [2] (pH 7.5) of 100%. The HMWP in series [3] (analogs 1–9 (pH 7.5 series)) is 3%.
